The values below come from ChEMBL document CHEMBL1201862, “PubChem BioAssay data set” (2004).

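Assay format: 96-well plates, 48-hour exposure. Here, GI50 denotes the concentration required for 50% inhibition of growth.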 Calls of active or inactive are those of the source. Rule as the data show it: active = GI50 up to about 1.1 µM and inactive = higher. Where only a bound is given, the exact number is not on record here.

Common to all, as to assay: DTP human tumour cell line panel, 48 h
Assay [1] relates to SNB-75.
For assay [2], the system named is EKVX.
Assay [3] has as its system K562.
Assay [4] concerns OVCAR-3.
Assay [5] deals with UO-31.
Assay [6] deals with RXF 393.
Assay [7] deals with LOX IMVI.
The subject of assay [8] is NCI-H226.
For assay [9], the system named is NCI-H460.
Assay [10] concerns OVCAR-4.
Assay [11] deals with NCI-H522.
The subject of assay [12] is OVCAR-8.
Assay [13] deals with HCC 2998.
The test system of assay [14] is SK-OV-3.
Assay [15] concerns HOP-92.
The subject of assay [16] is SF-539.
The test system of assay [17] is U-251.
Assay [18] has as its system OVCAR-5.
Assay [19] relates to COLO 205.
The test system of assay [20] is SF-268.

For `Nc1ccc(/N=N/c2ccc(/C=C/c3ccc(/N=N/c4ccc(N)c5ccc(S(=O)(=O)O)cc45)cc3S(=O)(=O)O)c(S(=O)(=O)O)c2)c2cc(S(=O)(=O)O)ccc12`, the GI50 – broadly, the concentration that inhibits growth by half – was 56.2 µM (inactive) in [1]; > 100 µM (inactive) in [2]; > 100 µM (inactive) in assay [3]; > 100 µM (inactive) in [4]; > 100 µM (inactive) in assay [5]; > 100 µM (inactive) in [6]. For the same compound, the GI50 in assay [7] was > 100 µM (inactive); in assay [8], > 71.1 µM (inactive); in [9], > 100 µM (inactive); in assay [10], > 100 µM (inactive); in assay [11], > 100 µM (inactive); in [12], > 100 µM (inactive). Moreover, the GI50 was > 100 µM (inactive) in [13]; > 100 µM (inactive) in [14]; 88.1 µM (inactive) in [15]; > 100 µM (inactive) in assay [16]; > 100 µM (inactive) in [17]; > 100 µM (inactive) in assay [18]. Moreover, the GI50 in assay [19] and in assay [20] was > 100 µM (inactive) in each case.
Consider `COc1cccc2c1C(=O)c1c(O)c3c(c(O)c1C2=O)CC(O)(C(C)=O)CC3O` (stereo not given), for which the GI50 in [1] was 9.68 µM (inactive); in [2], 4.9 µM (inactive); in [3], 4.34 µM (inactive); in assay [4] it was 7.8 µM (inactive); in assay [5] it was 9.57 µM (inactive); in [6] it was 5.98 µM (inactive). The GI50 is 1.63 µM (inactive) in assay [7]; 5.56 µM (inactive) in assay [8]; 1.56 µM (inactive) in assay [9]; 6.34 µM (inactive) in assay [10]; 1.03 µM (active) in assay [11]; 2.84 µM (inactive) in assay [12]. The GI50 was 7.24 µM (inactive) in assay [13]; 11.5 µM (inactive) in assay [14]; 7.11 µM (inactive) in assay [15]; 4.74 µM (inactive) in [16]; 4.03 µM (inactive) in [17]; 10.5 µM (inactive) in assay [18]. The GI50 in assay [19] is 3.02 µM (inactive); in [20], 4.23 µM (inactive).
With `CCCCCCCC/C=C\CCCCCCCC(=O)O` [OLEIC ACID], the GI50 in assay [1] is 24.5 µM (inactive); in assay [2], 124 µM (inactive); in assay [3] it was 104 µM (inactive); in assay [4], 184 µM (inactive); in assay [5], 158 µM (inactive); in [6], 92.7 µM (inactive). In addition, the GI50 in assay [7] is 116 µM (inactive); in assay [8] it was 9.48 µM (inactive); in [9], 101 µM (inactive); in assay [10] it was > 291 µM (inactive); in assay [11], 101 µM (inactive); in assay [12], 99.1 µM (inactive). The GI50 in assay [13] is > 434 µM (inactive); in [14], > 500 µM (inactive); in [15], > 5 µM (inactive); in assay [16] it was 103 µM (inactive); in assay [17], 149 µM (inactive); in [18], > 500 µM (inactive). The GI50 in [19] is > 500 µM (inactive); in assay [20], 101 µM (inactive).
For the compound `CN(C)C(=O)/C=C/c1c[nH]c(=O)[nH]c1=O`, the GI50 is > 500 µM (inactive) in [1]; > 281 µM (inactive) in assay [2]; > 500 µM (inactive) in [3]; > 500 µM (inactive) in assay [4]; > 500 µM (inactive) in assay [5]; > 500 µM (inactive) in [6]. The GI50 in assay [7], in [8], in assay [9], in assay [10], in assay [11] and in assay [12] was > 500 µM (inactive) in each case. For the same compound, the GI50 in [13] was > 500 µM (inactive); in assay [14], > 254 µM (inactive); in [15], > 500 µM (inactive); in assay [16], > 500 µM (inactive); in assay [17], > 500 µM (inactive); in assay [18], > 500 µM (inactive). Besides, the GI50 in assay [19] and in assay [20] was > 500 µM (inactive) each time.
